Consider one substance from paper PMC10077475, “DG9-conjugated morpholino rescues phenotype in SMA mice by reaching the CNS via a subcutaneous administration” (JCI Insight, 2023).

The test system of the assay is severe SMA mouse model (Taiwanese model). The assay can be described thus: Survival of severe SMA mice after a single subcutaneous injection at PD0. To be noted: single subcutaneous injection at PD0, 40 mg/kg, until humane endpoint. The assay is classed as in vivo. The protocol:
To examine whether DG9 peptide can increase the efficacy of PMO, we conjugated it to an 18-mer PMO with a sequence identical to nusinersen. The DG9-PMO, unconjugated PMO, and MOE were injected into SMA model mice [Cg-Tg(SMN2)2HungSmn1^tm1Hung/J; abbreviated as Smn^–/– SMN2^Tg/Tg; commonly called the Taiwanese model]. We also used an arginine-rich peptide (R6G) that is currently being explored in clinical trials for Duchenne muscular dystrophy (DMD) and used in preclinical studies for Hutchinson-Gilford progeria syndrome ([37], [38]). The benchmark control peptide R6G was conjugated to the same PMO sequence used in our study (R6G-PMO). […] We subcutaneously injected mice with the AOs or saline (nontreated, NT) administered at postnatal day 0 (PD0) at 2 doses: 40 mg/kg or 80 mg/kg. In our preliminary experiments, we also tested lower doses of 10 and 20 mg/kg (data not shown). […] The survival was recorded until a humane endpoint was reached. For the 40 mg/kg doses, the median survival was 12 days for unconjugated PMO, 15.5 days for MOE, and 17 days for R6G-PMO, which was increased to 58 days for DG9-PMO treatment (Figure 1A and Supplemental Figure 1A; supplemental material available online with this article; https://doi.org/10.1172/jci.insight.160516DS1). The median survival increased to 57 days for unconjugated PMO, 64 days for MOE, and 121 days for DG9-PMO at the higher dose of 80 mg/kg (Figure 1A). […] In spite of no statistical difference between DG9-PMO and MOE groups, the median survival of DG9-PMO still was higher than MOE, as only 1 mouse was alive until PD200 following a 40 mg/kg injection of MOE.
SMA-transgenic mice [JAX stock 005058 FVB.Cg-Tg(SMN2)2HungSmn1^tm1Hung/J] (Smn^–/–; SMN2^Tg/Tg), also known as Taiwanese mice, were purchased from Jackson Laboratory. Heterozygous mice for Smn1 (Smn1^+/–; SMN2^–/–) generated by us were crossed with mice homozygous for Smn1 Smn^–/–; SMN2^Tg/Tg generated by us to obtain the SMA mice (Smn^–/–; SMN2^Tg/–) or the heterozygous healthy control (Smn1^+/–; SMN2^Tg/–). The SMA mice display a severe overt phenotype similar to patients with SMA type I. The mice were genotyped using a PCR assay on genomic DNA isolated from tail biopsies using the Phire Tissue Direct PCR Kit (Thermo Fisher Scientific) as per the manufacturer’s instructions. The DNA was amplified using the primers described in Supplemental Table 1 using the condition Mouse Smn: 98°C/5 minutes → 98°C/5 s 58°C/10 s 72°C/10 s × 35 cycles → 72°C/1 minute.
Injections were carried out using a 30-gauge Hamilton syringe. SMA mice identified following genotyping were randomly assigned to a treatment group. The researcher injecting mice was blinded to the treatment. SMA neonates were subcutaneously injected with 40 or 80 mg/kg of AOs at PD0, while NT and heterozygous control mice were injected with saline (n = 10–49) per group. Tissues including the quadriceps muscle, liver, kidney, spleen, diaphragm, intercostal muscle, heart, brain, and spinal cord were collected and snap-frozen in dry ice– cooled isopentane, then subsequently stored at –80°C.

For the substance RRRRRRG [R6G-PMO], the median survival worked out at 17 days.
